# How the values were obtained:
# Assay in all cases: biochemical
# Set-up in all cases: SelectScreen LanthaScreen kinase binding assay, per cent tracer displacement, mean of two points
# Settings in all cases: tracer displacement
# ULK2 = target: T1, ULK2 (Homo sapiens, UniProt Q8IYT8)
# T1 sequence (Q8IYT8 1-1036): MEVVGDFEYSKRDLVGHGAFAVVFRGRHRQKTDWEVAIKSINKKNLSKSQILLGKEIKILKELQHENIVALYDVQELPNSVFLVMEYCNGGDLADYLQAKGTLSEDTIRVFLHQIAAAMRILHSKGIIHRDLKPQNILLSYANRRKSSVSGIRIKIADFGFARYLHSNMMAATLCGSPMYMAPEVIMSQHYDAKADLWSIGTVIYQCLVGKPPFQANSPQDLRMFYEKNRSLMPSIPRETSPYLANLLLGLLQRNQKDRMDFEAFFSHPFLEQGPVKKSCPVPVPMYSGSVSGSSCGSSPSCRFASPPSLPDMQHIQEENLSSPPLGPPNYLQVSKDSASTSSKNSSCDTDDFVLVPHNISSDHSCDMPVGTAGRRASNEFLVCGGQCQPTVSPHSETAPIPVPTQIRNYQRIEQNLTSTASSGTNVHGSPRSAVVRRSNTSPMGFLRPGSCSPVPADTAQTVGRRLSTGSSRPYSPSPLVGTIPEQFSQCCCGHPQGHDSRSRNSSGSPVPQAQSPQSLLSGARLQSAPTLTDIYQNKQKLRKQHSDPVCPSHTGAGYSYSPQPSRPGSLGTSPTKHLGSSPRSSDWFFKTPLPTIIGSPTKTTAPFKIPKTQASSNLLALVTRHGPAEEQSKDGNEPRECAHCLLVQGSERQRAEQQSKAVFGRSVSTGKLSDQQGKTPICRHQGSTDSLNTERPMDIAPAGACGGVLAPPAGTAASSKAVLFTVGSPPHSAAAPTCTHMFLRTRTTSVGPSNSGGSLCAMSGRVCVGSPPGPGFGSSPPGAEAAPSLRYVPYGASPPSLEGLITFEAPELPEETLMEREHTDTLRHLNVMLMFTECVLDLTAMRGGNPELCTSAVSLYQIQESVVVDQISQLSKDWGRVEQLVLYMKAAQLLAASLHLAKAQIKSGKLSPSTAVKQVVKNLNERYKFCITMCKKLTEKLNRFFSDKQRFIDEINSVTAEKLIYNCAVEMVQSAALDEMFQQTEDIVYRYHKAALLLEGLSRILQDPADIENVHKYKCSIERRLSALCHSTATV
# TGFBR1 (ALK5) = target: T2, TGFBR1 (ALK5) (Homo sapiens, UniProt P36897)
# T2 sequence (P36897 1-503): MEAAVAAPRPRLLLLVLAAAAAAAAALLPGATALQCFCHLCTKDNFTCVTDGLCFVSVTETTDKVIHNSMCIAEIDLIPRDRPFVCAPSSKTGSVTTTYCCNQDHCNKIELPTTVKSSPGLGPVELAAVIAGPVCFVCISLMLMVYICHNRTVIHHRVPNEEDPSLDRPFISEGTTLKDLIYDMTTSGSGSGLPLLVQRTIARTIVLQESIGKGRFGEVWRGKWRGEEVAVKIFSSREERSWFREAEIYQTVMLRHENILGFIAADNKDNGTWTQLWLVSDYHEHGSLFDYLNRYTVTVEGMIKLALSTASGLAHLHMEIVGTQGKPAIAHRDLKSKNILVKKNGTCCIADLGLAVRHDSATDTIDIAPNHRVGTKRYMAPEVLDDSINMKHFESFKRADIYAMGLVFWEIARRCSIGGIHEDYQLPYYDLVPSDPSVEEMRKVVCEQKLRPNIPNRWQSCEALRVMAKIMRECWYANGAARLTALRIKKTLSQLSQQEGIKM
# STK32C (YANK3) = STK32C (YANK3) (Homo sapiens, UniProt Q86UX6)
# CDK16 (PCTK1)/cyclin Y = CDK16 (PCTK1)/cyclin Y (Homo sapiens, UniProt Q00536)
# BMPR2 = target: T3, BMPR2 (Homo sapiens, UniProt Q13873)
# T3 sequence (Q13873 1-1038): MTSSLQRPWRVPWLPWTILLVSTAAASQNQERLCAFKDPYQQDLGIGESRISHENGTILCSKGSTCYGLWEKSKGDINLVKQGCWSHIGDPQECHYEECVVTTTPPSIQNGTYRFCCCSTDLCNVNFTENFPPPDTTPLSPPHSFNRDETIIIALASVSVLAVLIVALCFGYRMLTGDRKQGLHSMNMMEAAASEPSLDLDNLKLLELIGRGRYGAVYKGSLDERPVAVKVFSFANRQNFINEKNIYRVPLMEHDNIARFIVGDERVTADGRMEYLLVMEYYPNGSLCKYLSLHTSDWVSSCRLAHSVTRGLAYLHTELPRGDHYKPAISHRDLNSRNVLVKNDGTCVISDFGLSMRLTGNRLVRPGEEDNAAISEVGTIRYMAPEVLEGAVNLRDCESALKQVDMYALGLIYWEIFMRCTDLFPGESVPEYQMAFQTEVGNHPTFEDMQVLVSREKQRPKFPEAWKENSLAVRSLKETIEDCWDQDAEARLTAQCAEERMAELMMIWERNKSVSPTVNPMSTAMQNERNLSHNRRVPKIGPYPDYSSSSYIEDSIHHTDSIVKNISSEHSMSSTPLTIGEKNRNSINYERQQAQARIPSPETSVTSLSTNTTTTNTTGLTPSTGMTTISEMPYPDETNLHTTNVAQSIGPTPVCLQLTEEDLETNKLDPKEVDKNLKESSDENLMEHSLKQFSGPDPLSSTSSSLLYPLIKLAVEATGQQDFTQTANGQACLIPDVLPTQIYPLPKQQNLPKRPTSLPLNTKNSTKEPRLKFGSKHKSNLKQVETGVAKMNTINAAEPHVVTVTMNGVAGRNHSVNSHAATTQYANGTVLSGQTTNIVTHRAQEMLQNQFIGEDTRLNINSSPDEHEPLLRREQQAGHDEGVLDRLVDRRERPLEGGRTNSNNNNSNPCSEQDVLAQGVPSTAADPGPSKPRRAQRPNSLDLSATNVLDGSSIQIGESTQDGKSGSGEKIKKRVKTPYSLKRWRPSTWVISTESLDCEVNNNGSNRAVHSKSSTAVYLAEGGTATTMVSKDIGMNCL
# CDK16 (PCTK1)/cyclin Y, sequence (Q00536 whole entry): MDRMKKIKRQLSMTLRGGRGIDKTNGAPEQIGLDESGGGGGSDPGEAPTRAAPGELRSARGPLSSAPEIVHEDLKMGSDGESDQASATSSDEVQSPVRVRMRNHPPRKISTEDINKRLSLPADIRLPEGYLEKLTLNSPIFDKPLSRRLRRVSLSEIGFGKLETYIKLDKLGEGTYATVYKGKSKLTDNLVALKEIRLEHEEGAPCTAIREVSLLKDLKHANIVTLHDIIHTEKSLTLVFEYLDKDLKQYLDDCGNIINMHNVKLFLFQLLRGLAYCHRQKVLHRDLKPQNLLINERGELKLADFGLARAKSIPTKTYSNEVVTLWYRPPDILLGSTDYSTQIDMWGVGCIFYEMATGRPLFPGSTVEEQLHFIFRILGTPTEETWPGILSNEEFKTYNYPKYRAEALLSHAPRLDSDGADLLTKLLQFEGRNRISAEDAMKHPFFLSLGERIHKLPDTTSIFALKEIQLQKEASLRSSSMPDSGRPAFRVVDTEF
# CDK16 (PCTK1)/cyclin Y, sequence (Q8ND76 whole entry partner): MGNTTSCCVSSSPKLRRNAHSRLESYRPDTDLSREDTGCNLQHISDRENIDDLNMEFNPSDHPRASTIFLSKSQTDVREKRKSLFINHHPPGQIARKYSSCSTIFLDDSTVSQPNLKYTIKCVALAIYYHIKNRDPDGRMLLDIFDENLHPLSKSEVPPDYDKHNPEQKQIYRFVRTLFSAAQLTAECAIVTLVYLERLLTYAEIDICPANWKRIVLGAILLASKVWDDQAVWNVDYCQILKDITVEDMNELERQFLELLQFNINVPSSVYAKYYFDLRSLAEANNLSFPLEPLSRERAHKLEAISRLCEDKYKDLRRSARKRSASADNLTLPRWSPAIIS
# STK32C (YANK3), sequence (Q86UX6 whole entry): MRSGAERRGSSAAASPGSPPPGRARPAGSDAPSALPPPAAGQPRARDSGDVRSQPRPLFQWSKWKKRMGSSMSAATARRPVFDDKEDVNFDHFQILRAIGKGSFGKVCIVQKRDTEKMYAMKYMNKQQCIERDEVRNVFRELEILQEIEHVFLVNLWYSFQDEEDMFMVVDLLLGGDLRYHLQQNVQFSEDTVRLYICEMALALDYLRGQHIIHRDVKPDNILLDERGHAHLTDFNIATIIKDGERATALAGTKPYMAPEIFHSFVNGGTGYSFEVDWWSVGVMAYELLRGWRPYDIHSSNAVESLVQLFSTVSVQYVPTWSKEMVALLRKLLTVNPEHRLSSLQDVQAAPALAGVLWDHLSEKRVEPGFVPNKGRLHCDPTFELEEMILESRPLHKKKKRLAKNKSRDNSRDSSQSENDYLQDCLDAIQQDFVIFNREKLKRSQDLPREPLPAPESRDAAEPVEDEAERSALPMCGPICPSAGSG
inhibition at 1 µM (ULK2),inhibition at 3 µM (ULK2),inhibition at 10 µM (ULK2),inhibition at 1 µM (TGFBR1 (ALK5)),inhibition at 3 µM (TGFBR1 (ALK5)),inhibition at 10 µM (TGFBR1 (ALK5)),inhibition at 1 µM (STK32C (YANK3)),inhibition at 3 µM (STK32C (YANK3)),inhibition at 10 µM (STK32C (YANK3)),inhibition at 1 µM (CDK16 (PCTK1)/cyclin Y),inhibition at 3 µM (CDK16 (PCTK1)/cyclin Y),inhibition at 10 µM (CDK16 (PCTK1)/cyclin Y),inhibition at 1 µM (BMPR2),inhibition at 3 µM (BMPR2),inhibition at 10 µM (BMPR2),SMILES
-2.32%,-0.489%,2.18%,-4.81%,14.1%,1.48%,8.19%,-2.39%,-8.61%,3.53%,-5.28%,-6.76%,11.6%,13.1%,17.3%,"CS(=O)(=O)Nc1cccc(-c2csc(NC(=O)CSc3nc4nccnc4c(=O)n3CCc3ccccc3)n2)c1 [compound 3, PITCOIN3]"
-4.11%,-4.09%,-1.99%,-5.43%,9.69%,5.12%,-7%,-1.98%,-5.28%,-6.54%,-14.5%,-1.48%,-1.13%,0.974%,3.06%,"O=C(CSc1nc2nccnc2c(=O)n1CCc1ccccc1)Nc1nccs1 [compound 1, PITCOIN1]"
